From PubChem BioAssay (NCI) come the findings set out here.

Experiment in all cases: growth of human tumour cells (NCI), 48 h
Experiment [1] has as its system DU-145 prostate.
In experiment [2] the test system is SW-620 colon.
Experiment [3] concerns CCRF-CEM leukemia.
The test system of experiment [4] is 786-0 renal.
The subject of experiment [5] is T-47D breast.
The test system of experiment [6] is MALME-3M melanoma.
For experiment [7], the system named is MOLT-4 leukemia.
Experiment [8] relates to SR leukemia.
Experiment [9] has as its system SK-MEL-28 melanoma.
In experiment [10] the test system is HL-60(TB) leukemia.

SMILES strings stand for the structures.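 Cultured in 96-well plates, cells were exposed to test compound for 48 hours across five concentrations. GI50: concentration for 50% inhibition of growth. TGI: concentration producing complete growth inhibition.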 Where a SMILES comes first, the peptide text is derived from it. [ ]: non-standard residue; d: D form. The star is where a group is joined. Cbz = O=C(OCc1ccccc1)*; Boc = CC(C)(C)OC(=O)*; Aib = CC(C)(N)C(=O)O; OBn = c1ccc(CO*)cc1; OtBu = CC(C)(C)O*; βAla = NCCC(=O)O Where only a bound is given, the exact number is not on record here.

For `O=c1[nH]nc(Cc2ccc(Cl)cc2)n1O`, the TGI in experiment [1], in [2], in experiment [3], in [4], in experiment [5] and in experiment [6] was above 100 µM in each case. Moreover, the TGI in [7], in experiment [8], in experiment [9] and in experiment [10] was above 100 µM in each case.

Regarding `CC#CC(O)(C(=O)OC1CCCN(C)C1)C1=CC=CCC1` (stereo unspecified), the TGI in experiment [1], in experiment [2], in experiment [3], in experiment [4], in experiment [5] and in [6] was above 100 µM throughout. Also, the TGI in [7], in [8], in experiment [9] and in experiment [10] was above 100 µM throughout.

With `CCOC(=O)C1=C(C)NC(=S)NC1c1cccc(O)c1` (stereo unspecified), the TGI in experiment [1] was above 100 µM; in [2], above 100 µM; in experiment [3], above 89.9 µM; in experiment [4] it was above 100 µM; in [5] it was above 100 µM; in experiment [6] it was above 100 µM. Also, the TGI was above 100 µM in experiment [7], above 95.6 µM in experiment [8], above 100 µM in experiment [9] and 77.5 µM in [10].

For `CSC(=NC1=NC(C(F)(F)F)(C(F)(F)F)N=C(c2ccccc2)O1)SC`, the TGI in experiment [1] is 45 µM; in experiment [2], above 100 µM; in [3] it was above 100 µM; in [4], 43.5 µM; in [5], 24.2 µM; in experiment [6], 37.7 µM. The TGI in experiment [7] is 85.3 µM; in experiment [8] it was 76.1 µM; in experiment [9] it was above 100 µM; in [10], 64 µM.

On to `CN(C(=O)c1ccc(Cl)s1)C(=S)N(C)C(=O)c1ccc(Cl)s1`, for which the TGI in [1], in [2], in experiment [3], in experiment [4], in experiment [5] and in experiment [6] was above 10 µM in each case. Moreover, the TGI in [7], in experiment [8], in experiment [9] and in [10] was above 10 µM each time.

As to `N#CCCN(CCCN(C(=O)Nc1ccccc1)c1ccccc1)C(=O)Nc1ccccc1`, the TGI in [1], in experiment [2], in experiment [3], in experiment [4], in [5] and in experiment [6] was above 100 µM in each case. Besides, the TGI in experiment [7], in experiment [8], in experiment [9] and in experiment [10] was above 100 µM each time.

For `O=C(/C=C/c1ccc([N+](=O)[O-])cc1)c1nc2ccccc2[nH]1`, the TGI is above 100 µM in experiment [1]; above 100 µM in experiment [2]; above 100 µM in [3]; above 100 µM in experiment [4]; above 84.8 µM in experiment [5]; above 100 µM in experiment [6]. In addition, the TGI in experiment [7] was 99.7 µM; in experiment [8], 11.3 µM; in experiment [9], above 100 µM; in [10], above 29.9 µM.

Consider `O=C1c2ccccc2CC12Cc1ccc3c(c1C2)CCC3` (stereo unspecified), for which the TGI in experiment [1] was above 100 µM; in experiment [2], above 100 µM; in [3], 49.3 µM; in experiment [4], 51.7 µM; in experiment [5] it was above 100 µM; in experiment [6], 30.3 µM. The TGI in experiment [7] is above 100 µM; in experiment [8], 44.1 µM; in experiment [9] it was above 100 µM; in [10], 42.1 µM.

`Cc1ccc2c(c1)OC1Nc3ccccc3C1=C2O` (stereo unspecified): the TGI is above 100 µM in experiment [1]; above 100 µM in [2]; 66 µM in experiment [4]; 85 µM in experiment [5]; above 100 µM in [6]; above 100 µM in experiment [7]. Besides, the values for the TGI in [8], in experiment [9] and in experiment [10] were above 100 µM, above 100 µM and 43.1 µM, respectively.

Turning to `CSC1SCC2C(=O)N(C)C3(CC3C)C(=O)OCC(NC(=O)c3nc4ccccc4cc3O)C(=O)NC(C)C(=O)N(C)C1C(=O)N(C)C1(CC1C)C(=O)OCC(NC(=O)c1nc3ccccc3cc1O)C(=O)NC(C)C(=O)N2C` (stereo unspecified), the TGI in [1] was above 100 µM; in experiment [2], above 100 µM; in [3], below 0.0001 µM; in [5] it was above 100 µM; in experiment [8], below 0.0001 µM; in experiment [9] it was below 0.0001 µM. This molecule yielded a TGI in [10] below 0.0001 µM.

Turning to `CC(C)(C)OC(=O)CC(NC(=O)OC(C)(C)C)C(=O)NC(CCCCNC(=O)OCc1ccccc1)C(=O)NC(C)(C)C(=O)NCCC(=O)OCc1ccccc1` (stereo unspecified) (Boc-D(OtBu)K(Cbz)[Aib][βAla]-OBn; configuration not given here), the TGI in experiment [1], in experiment [2], in [4], in experiment [5], in experiment [6] and in experiment [7] was above 100 µM each time. Besides, the TGI in [8], in experiment [9] and in [10] was above 100 µM throughout.

`O=C1[C@@H]2Cc3c([nH]c4ccccc34)C(C3CCCCC3)N2C(=O)[C@@H]2CCCN12` (stereo partly specified): the TGI was above 100 µM in experiment [1]; above 100 µM in experiment [2]; 75.9 µM in [4]; above 100 µM in [5]; 51.1 µM in experiment [6]; 57 µM in [7]. Further, the TGI is 46.8 µM in experiment [8], above 100 µM in [9] and 59.2 µM in experiment [10].

Turning to `O=C(Nc1cccc(-c2cn3ccccc3n2)c1)c1ccncc1`, the TGI was above 100 µM in [1]; above 100 µM in experiment [2]; 82.5 µM in experiment [3]; above 100 µM in [4]; 79.6 µM in experiment [5]; above 100 µM in [6]. The TGI in experiment [7] was 52.6 µM; in experiment [8], 71.7 µM; in [9], above 100 µM; in experiment [10] it was 45.8 µM.

Consider `Cc1ccc(S(=O)(=O)N2CCN(CCN(C)CCN3CCN(S(=O)(=O)c4ccc(C)cc4)CC3)CC2)cc1`, for which the TGI in experiment [1] stood at 68.5 µM; in [2], 31.7 µM; in [3] it was 44.2 µM; in experiment [4], 39.3 µM; in experiment [5], 48 µM; in experiment [6], 33.7 µM. Further, the TGI in experiment [7] is 36 µM; in experiment [8] it was 36.3 µM; in experiment [9], 31.4 µM; in experiment [10], 33.6 µM.

In the case of `CCN(CC)CCCNc1ccc2nnn3c4ccc(O)cc4c(=O)c1c23`, the TGI in experiment [1] turned out to be 24.1 µM; in experiment [2], 18.4 µM; in experiment [3] it was 39.8 µM; in [4] it was 19.6 µM; in experiment [5] it was 39.9 µM; in experiment [6], 26.4 µM. The TGI in [7] was 18.5 µM; in [8], 21.8 µM; in [9], 32 µM; in experiment [10], 33.2 µM.

In the case of `COc1cccc(-c2nc3sccn3c2-c2ccnc(NCCNC(=O)Nc3cccc(C(F)(F)F)c3)n2)c1`, the GI50 in [1] was 5.13 µM; in experiment [2], 4.47 µM; in [3] it was 3.43 µM; in experiment [5] it was 3.77 µM; in experiment [6], 3.86 µM; in experiment [7] it was 3.27 µM. Besides, the GI50 is 3.75 µM in [8], 5.36 µM in experiment [9] and 2.92 µM in [10]. Besides, the TGI in experiment [1] is 95.5 µM; in [2], 91.5 µM; in experiment [3], above 100 µM; in experiment [5], 13.8 µM; in experiment [6] it was 26.8 µM; in [7] it was 9.94 µM. Besides, the figures for the TGI in experiment [8], in [9] and in [10] were 29.7 µM, 26.2 µM and 7.43 µM, respectively.

As to `CSc1ncc2c(n1)-c1ccccc1OC2N1CCCC1` (stereo unspecified), the TGI in experiment [1], in experiment [2], in experiment [3], in experiment [4], in experiment [5] and in experiment [7] was above 100 µM throughout. The TGI in experiment [8] and in experiment [10] was above 100 µM throughout.

Take `COC(=O)c1cncc2c1CC1C3(C(=O)OC)C=NC(C4C(CO)=CCC43)C21C` (stereo unspecified): the TGI in experiment [1], in experiment [2], in [3], in [4], in experiment [5] and in experiment [6] was above 100 µM throughout. For the same molecule, the TGI in [7], in experiment [8], in experiment [9] and in [10] was above 100 µM each time.

Take `O=C(NNC(=S)Nc1ccccc1)c1csc(NC(=S)NC2CCCCC2)n1`: the TGI in experiment [1], in experiment [2], in experiment [3], in experiment [4], in experiment [5] and in experiment [6] was above 100 µM each time. Besides, the TGI in [7], in experiment [8] and in [10] was above 100 µM in each case.

Take `N#CCc1nc(C#N)c(N)o1`: the TGI in [1], in experiment [2], in experiment [3], in [4], in experiment [5] and in experiment [6] was above 100 µM each time. In addition, the TGI in experiment [7], in [8], in experiment [9] and in experiment [10] was above 100 µM in each case. In addition, the GI50 in experiment [10] was above 100 µM.

Regarding `CCOC(=O)c1c(N2CCOCC2)[nH]c(=O)c(C(c2ccc(OC)cc2)c2c(O)c(C(=O)OCC)c(N3CCOCC3)[nH]c2=O)c1O`, the TGI in [1], in [2], in [3], in [4], in experiment [5] and in [6] was above 100 µM in each case. The TGI in [7], in experiment [8] and in [9] was above 100 µM throughout.

On to `O=C(NCCO)c1ccc(Cl)cc1`, for which the TGI in [1] is above 100 µM; in [2], above 100 µM; in experiment [3] it was 90.2 µM; in experiment [4], above 100 µM; in experiment [5], above 100 µM; in experiment [6], above 100 µM. Besides, the TGI in experiment [7], in experiment [8] and in [9] was above 100 µM in each case.

Take `COc1cc2ccnc3c2c(c1O)N(C)C=C3`: the TGI in experiment [1] was above 62 µM; in experiment [2], above 100 µM; in experiment [3], above 100 µM; in [4] it was 21.8 µM; in experiment [5], above 24.7 µM; in experiment [6] it was 21.7 µM. The TGI in [7] is above 100 µM; in experiment [8] it was above 100 µM; in experiment [9] it was above 66.2 µM.

As for `NC(N)=N/N=C/c1nc2sccn2c1[N+](=O)[O-]`, the TGI in experiment [1] is 57.1 µM; in experiment [2], above 100 µM; in experiment [4], above 100 µM; in experiment [5], 65.1 µM; in experiment [6] it was 26.3 µM; in experiment [8], above 100 µM. The TGI in experiment [9] is above 100 µM; in experiment [10], 34.1 µM.

With `COC(=O)C1(C(=O)OC)N=C(C)OC1C(C)C` (stereo unspecified), the TGI in experiment [1], in experiment [2], in [3], in experiment [4], in [5] and in [7] was above 100 µM in each case. Besides, the TGI in experiment [8], in [9] and in experiment [10] was above 100 µM each time.

Take `Nc1nc2c(ncn2C2C=CC(CO)O2)c(=O)[nH]1` (stereo unspecified): the TGI in experiment [1], in experiment [2], in experiment [3], in [5], in experiment [6] and in experiment [7] was above 100 µM throughout. Also, the TGI in [8] and in experiment [9] was above 100 µM throughout.

`Cc1ccc(O)c(C2=NNC(c3cccc(Br)c3)C2)c1` (stereo unspecified): the TGI in experiment [1], in experiment [2], in experiment [3], in [4], in [5] and in [6] was above 100 µM throughout. Also, the TGI in experiment [7], in experiment [8] and in experiment [10] was above 100 µM in each case.
